Reference: publication PMC8639922, “KSHV transactivator-derived small peptide traps coactivators to attenuate MYC and inhibits leukemia and lymphoma cell growth” (Communications Biology, 2021)
Square brackets hold non-standard residues; d marks the D form. Peptide text beside a SMILES is read from it. Orn = NCCC[C@H](N)C(=O)O; βAla = NCCC(=O)O

Assays:
KSHV PAN RNA in BCBL-1 = test: KSHV PAN RNA qRT-PCR (reactivation); assay type: cell-based; settings: BCBL-1, 16 μM, 24 h
Description: (§1) Because VGN50 is derived from the KSHV transactivator sequence, we next examined if VGN50 can inhibit KSHV lytic replication by competitively blocking the coactivator binding to K-Rta. To study this, we used the TREx-K-Rta BCBL-1 cell line, in which we can trigger the expression of exogenous Flag-tagged K-Rta in a doxycycline (Dox) inducible manner. TREx-K-Rta BCBL-1 cells were treated with […] VGN50 or mutant peptide, with or without Dox induction. We used approximately one-half of the IC50 concentration of VGN50 to treat the TREx-K-Rta BCBL-1 cells in order to avoid cell toxicity effects that would non-specifically decrease viral gene expression. KSHV gene expression was profiled with a KSHV genome-wide PCR array, using ribosomal rRNA for normalization and as an internal control. Fold activation relative to the uninduced Mut-P-treated sample (not induced: Dox -) was determined and a heatmap for KSHV lytic gene expression was generated (Fig. 3a). […] Immunoblotting was used to confirm the induction of lytic replication by Dox based on exogenous K-Rta protein (Flag-K-Rta) and the expression of two other KSHV lytic proteins (ORF57 and K-bZIP) along with actin and KSHV LANA protein as controls for equal loading and similar viral copy numbers in samples, respectively (Fig. 3b).
(§2) Fig. 3 Effects of VGN50 on KSHV gene transcription and VGN50 binding with SWI/SNF components. a KSHV qRT-PCR array analysis was used to study effects of VGN50 on KSHV gene transcription in a genome-wide manner. Uninduced (−; no doxycycline added) or dox-induced (+; 1 μg/ml) cells were treated with VGN50 or the mutant peptide (Mut-P) at a concentration of 24 μM. Samples were collected at 24 h post-treatment. Expression in uninduced cells was set as 1 for each viral gene and expression shown as fold activation relative to no-Dox samples. Selected cellular genes were also included in the PCR array for comparison. 18S ribosomal RNA was used as an internal control. b KSHV protein expression. Immunoblotting was performed to confirm both endogenous and exogenous K-Rta expression before (not induced) and after induction by Dox treatment (Dox-induced). Latent KSHV protein LANA and actin were used as controls for KSHV copy number (LANA) and loading (actin), respectively. Protein samples were collected 48-h post Dox incubation. c KSHV reactivation by VGN50 incubation. BCBL-1 and BC-1 cell lines were treated with VGN50 (16 μM concentration) and total RNA harvested at 24 h post treatment. KSHV PAN RNA expression was examined by qRT-PCR and relative expression over 18S rRNA is shown. Data are presented as mean ± SD (n = 3). d Purification of recombinant SWI/SNF components. SDS-PAGE analysis of five SWI/SNF components individually prepared from baculovirus-infected Sf9 cells. e A schematic illustration of ELISA assay to evaluate VGN50 and SWI/SNF interaction. f Analysis of VGN50 binding to SWI/SNF components by ELISA. Increasing concentrations of biotin-conjugated VGN50 or Mut-P were incubated in duplicate in an ELISA plate coated with each SWI/SNF component. Peptide binding measured as OD values at 450 nm are shown. Mean OD values were compared between the VGN50 and Mut-P in each concentration using unpaired t-test. **p < 0.01, *p < 0.05, NS no significance. Data are presented as mean ± SD with duplicated samples and repeated three times with different purified protein preps.

KSHV PAN RNA in BC-1 = test: KSHV PAN RNA qRT-PCR (reactivation); assay type: cell-based; settings: BC-1, 16 μM, 24 h
Description: as §1, §2

## CC(C)C[C@H](NC(=O)CCNC(=O)[C@H](CCCNC(=N)N)NC(=O)[C@H](CCCNC(=N)N)NC(=O)[C@H](CCCNC(=N)N)NC(=O)[C@H](CCCN)NC(=O)[C@H](CCCNC(=N)N)NC(=O)[C@H](CCCNC(=N)N)NC(=O)[C@H](CCCCN)NC(=O)[C@H](CCCCN)NC(=O)[C@H](N)CCCNC(=N)N)C(=O)N[C@@H](CO)C(=O)N[C@@H](CO)C(=O)N[C@@H](C)C(=O)N[C@@H](C)C(=O)N[C@@H](C)C(=O)NCC(=O)N[C@@H](CC(C)C)C(=O)N[C@@H](Cc1ccc(O)cc1)C(=O)N[C@@H](CCC(N)=O)C(=O)N[C@@H](CC(C)C)C(=O)N[C@@H](CC(=O)O)C(=O)N[C@H](C(=O)O)[C@@H](C)O [Mt-P] (H-[dR]KKRR[Orn]RRR[βAla]LSSAAAGLYQLDT-OH; N-terminus and C-terminus assumed)
KSHV PAN RNA in BCBL-1; replicate 1
  KSHV PAN RNA relative expression over 18S rRNA: 0.0001238
KSHV PAN RNA in BCBL-1; replicate 2
  KSHV PAN RNA relative expression over 18S rRNA: 0.0001335
KSHV PAN RNA in BCBL-1; replicate 3
  KSHV PAN RNA relative expression over 18S rRNA: 0.0001325
KSHV PAN RNA in BC-1; replicate 1
  KSHV PAN RNA relative expression over 18S rRNA: 1.419e-5
KSHV PAN RNA in BC-1; replicate 2
  KSHV PAN RNA relative expression over 18S rRNA: 1.503e-5
KSHV PAN RNA in BC-1; replicate 3
  KSHV PAN RNA relative expression over 18S rRNA: 1.204e-5
